The results in this text go back to ChEMBL document CHEMBL3991601, “The target landscape of clinical kinase drugs” (Science, 2017).

Test [1] concerns the target T1, Serine/threonine-protein kinase A-Raf (Homo sapiens, UniProt P10398).
T1 sequence (P10398 whole entry): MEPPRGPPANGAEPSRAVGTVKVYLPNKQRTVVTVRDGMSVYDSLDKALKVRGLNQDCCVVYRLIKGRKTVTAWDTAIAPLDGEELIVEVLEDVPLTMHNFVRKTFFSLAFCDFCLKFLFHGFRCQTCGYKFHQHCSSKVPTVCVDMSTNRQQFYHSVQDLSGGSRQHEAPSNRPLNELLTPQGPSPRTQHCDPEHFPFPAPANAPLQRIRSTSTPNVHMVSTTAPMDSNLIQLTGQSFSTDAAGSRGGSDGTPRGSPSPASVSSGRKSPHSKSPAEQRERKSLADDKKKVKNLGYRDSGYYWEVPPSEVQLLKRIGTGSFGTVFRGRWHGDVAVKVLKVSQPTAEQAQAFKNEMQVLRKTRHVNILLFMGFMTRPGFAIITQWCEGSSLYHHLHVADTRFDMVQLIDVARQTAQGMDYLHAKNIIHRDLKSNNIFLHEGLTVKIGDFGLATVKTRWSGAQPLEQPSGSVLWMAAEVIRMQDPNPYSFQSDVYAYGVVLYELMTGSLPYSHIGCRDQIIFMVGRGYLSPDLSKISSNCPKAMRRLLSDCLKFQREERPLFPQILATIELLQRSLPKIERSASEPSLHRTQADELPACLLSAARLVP

Test [2] concerns the target T2, Bone morphogenetic protein receptor type-2 (Homo sapiens, UniProt Q13873).
T2 sequence (Q13873 whole entry): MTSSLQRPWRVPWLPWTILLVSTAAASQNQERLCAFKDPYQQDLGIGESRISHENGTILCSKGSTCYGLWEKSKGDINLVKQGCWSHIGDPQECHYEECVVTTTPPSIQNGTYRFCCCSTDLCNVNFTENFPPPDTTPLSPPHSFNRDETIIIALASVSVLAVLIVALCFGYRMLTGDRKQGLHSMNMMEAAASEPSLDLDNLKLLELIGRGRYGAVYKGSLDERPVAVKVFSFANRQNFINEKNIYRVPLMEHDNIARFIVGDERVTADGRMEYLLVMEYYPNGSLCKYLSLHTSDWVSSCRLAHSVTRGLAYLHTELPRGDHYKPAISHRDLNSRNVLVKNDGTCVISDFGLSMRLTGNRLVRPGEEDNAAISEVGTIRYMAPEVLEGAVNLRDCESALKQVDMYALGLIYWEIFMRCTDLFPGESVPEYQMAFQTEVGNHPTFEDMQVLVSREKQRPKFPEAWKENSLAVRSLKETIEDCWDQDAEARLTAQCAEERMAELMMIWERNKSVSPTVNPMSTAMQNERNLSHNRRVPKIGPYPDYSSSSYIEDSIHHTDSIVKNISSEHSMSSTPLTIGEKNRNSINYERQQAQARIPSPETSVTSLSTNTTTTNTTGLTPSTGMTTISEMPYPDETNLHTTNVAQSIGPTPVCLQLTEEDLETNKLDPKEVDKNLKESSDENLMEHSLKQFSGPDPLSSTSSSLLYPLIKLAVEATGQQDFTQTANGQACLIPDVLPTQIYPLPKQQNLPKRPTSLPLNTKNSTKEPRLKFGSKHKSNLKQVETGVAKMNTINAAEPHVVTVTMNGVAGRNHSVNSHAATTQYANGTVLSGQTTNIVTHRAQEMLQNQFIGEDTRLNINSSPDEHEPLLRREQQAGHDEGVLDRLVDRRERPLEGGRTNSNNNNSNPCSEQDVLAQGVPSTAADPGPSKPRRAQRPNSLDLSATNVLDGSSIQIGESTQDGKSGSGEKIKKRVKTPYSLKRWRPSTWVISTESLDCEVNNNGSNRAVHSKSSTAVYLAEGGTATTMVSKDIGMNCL

Test [3] has as its target Chromodomain-helicase-DNA-binding protein 4 (Homo sapiens, UniProt Q14839).
The target in test [4] is Serine/threonine-protein kinase/endoribonuclease IRE1 (Homo sapiens, UniProt O75460).
The target in test [5] is Fibroblast growth factor receptor 1 (Homo sapiens, UniProt P11362).
Another test has as its target T3, Heme oxygenase 2 (Homo sapiens, UniProt P30519).
T3 sequence (P30519 whole entry): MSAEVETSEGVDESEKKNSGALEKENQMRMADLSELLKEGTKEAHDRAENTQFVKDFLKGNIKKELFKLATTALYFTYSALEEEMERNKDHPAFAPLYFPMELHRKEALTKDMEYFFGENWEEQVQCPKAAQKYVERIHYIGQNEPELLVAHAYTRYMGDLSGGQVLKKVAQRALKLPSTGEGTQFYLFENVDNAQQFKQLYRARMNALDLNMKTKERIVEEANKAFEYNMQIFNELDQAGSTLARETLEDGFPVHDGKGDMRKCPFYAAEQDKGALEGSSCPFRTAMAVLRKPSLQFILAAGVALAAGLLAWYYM

In the next test the target is LIM domain kinase 2 (Homo sapiens, UniProt P53671).
In test [6] the target is Serine/threonine-protein kinase PAK 4 (Homo sapiens, UniProt O96013).
Test [7] addresses Proto-oncogene tyrosine-protein kinase Src (Homo sapiens, UniProt P12931).
Test [8] concerns the target T4, Serine/threonine-protein kinase ULK3 (Homo sapiens, UniProt Q6PHR2).
T4 sequence (Q6PHR2 whole entry): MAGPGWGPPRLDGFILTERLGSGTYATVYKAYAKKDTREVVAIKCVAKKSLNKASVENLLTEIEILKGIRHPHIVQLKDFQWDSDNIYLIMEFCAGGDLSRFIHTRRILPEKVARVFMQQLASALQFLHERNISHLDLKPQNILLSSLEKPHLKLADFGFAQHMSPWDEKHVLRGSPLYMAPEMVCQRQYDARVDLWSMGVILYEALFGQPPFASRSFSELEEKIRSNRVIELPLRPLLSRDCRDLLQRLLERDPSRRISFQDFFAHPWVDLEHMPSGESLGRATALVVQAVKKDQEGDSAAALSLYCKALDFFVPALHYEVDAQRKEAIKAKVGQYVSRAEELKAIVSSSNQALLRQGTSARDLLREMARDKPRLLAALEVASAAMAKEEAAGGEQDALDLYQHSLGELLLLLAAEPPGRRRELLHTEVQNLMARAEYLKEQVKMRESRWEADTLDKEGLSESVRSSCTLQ

Each structure is given as a SMILES string. Active and inactive are the calls of the source. Cut-off read from the data, not from the text of the source, for most assays here: actives have a measured Kd and inactives only a lower limit.
Note: in the data inactive means no Kd found up to 30 µM.

Proto-oncogene tyrosine-protein kinase Src, sequence (P12931 2-536 limits assumed): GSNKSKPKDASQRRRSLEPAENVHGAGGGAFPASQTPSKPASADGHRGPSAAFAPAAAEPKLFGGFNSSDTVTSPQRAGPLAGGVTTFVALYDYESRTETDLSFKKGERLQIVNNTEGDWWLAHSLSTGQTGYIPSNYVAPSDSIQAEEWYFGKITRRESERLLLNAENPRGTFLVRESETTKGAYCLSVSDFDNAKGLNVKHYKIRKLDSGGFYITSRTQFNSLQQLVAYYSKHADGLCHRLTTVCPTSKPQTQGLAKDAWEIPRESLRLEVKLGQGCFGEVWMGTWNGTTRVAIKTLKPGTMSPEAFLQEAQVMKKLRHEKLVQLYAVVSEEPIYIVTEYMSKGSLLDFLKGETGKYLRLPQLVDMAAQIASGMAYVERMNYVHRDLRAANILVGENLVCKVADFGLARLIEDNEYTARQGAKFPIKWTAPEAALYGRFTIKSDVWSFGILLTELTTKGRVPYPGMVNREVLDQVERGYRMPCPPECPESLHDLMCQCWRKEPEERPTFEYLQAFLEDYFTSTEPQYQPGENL
Chromodomain-helicase-DNA-binding protein 4, sequence (Q14839 whole entry): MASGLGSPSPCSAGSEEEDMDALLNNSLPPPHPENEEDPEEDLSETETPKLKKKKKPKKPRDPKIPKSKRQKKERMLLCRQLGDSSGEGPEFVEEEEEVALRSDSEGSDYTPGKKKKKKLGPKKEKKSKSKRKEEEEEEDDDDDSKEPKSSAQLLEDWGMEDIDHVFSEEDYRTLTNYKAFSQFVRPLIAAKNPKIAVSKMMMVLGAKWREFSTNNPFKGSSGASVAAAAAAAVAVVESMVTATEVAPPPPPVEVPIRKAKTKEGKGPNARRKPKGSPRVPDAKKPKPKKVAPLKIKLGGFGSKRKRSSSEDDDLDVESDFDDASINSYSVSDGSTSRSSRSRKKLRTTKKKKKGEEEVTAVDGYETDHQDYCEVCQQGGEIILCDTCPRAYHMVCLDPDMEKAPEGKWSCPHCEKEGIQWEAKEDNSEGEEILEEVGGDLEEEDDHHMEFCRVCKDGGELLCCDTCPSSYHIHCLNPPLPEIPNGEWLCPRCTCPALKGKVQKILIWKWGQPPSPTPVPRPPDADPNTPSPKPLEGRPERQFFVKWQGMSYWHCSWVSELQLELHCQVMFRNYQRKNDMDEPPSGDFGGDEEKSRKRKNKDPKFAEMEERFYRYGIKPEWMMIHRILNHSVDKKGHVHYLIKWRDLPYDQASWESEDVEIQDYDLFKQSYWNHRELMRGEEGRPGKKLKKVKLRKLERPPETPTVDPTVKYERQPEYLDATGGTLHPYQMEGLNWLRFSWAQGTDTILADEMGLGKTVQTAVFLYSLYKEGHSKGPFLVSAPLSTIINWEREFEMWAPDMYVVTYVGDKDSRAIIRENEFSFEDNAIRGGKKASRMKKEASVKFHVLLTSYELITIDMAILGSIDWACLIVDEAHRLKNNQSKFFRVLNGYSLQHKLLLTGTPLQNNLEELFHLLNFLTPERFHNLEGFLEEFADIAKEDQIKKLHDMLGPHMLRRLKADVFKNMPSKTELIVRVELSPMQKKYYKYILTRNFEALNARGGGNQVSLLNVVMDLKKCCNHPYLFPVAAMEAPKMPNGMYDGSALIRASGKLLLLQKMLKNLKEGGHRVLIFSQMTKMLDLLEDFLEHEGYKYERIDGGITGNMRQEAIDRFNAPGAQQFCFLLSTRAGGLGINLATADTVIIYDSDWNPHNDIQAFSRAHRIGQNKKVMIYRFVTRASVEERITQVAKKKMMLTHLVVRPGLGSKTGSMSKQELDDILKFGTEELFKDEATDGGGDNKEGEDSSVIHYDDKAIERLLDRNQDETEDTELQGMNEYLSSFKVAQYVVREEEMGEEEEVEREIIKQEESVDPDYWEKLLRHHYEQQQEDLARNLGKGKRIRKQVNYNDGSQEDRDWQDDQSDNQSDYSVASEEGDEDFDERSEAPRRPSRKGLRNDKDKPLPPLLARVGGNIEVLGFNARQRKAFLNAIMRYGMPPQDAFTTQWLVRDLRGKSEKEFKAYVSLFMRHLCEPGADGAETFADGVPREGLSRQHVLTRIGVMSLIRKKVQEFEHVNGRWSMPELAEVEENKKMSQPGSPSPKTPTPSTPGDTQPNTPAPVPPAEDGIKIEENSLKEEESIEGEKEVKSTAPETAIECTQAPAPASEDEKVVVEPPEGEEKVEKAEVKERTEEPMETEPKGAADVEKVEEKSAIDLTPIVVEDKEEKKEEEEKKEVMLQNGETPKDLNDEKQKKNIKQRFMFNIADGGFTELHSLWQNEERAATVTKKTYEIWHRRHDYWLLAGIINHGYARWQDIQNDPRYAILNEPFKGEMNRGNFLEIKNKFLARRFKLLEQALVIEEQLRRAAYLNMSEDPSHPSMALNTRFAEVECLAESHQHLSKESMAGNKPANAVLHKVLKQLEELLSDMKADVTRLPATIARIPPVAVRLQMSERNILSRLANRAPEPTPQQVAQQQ
LIM domain kinase 2, sequence (P53671 whole entry, the tested form may be a part): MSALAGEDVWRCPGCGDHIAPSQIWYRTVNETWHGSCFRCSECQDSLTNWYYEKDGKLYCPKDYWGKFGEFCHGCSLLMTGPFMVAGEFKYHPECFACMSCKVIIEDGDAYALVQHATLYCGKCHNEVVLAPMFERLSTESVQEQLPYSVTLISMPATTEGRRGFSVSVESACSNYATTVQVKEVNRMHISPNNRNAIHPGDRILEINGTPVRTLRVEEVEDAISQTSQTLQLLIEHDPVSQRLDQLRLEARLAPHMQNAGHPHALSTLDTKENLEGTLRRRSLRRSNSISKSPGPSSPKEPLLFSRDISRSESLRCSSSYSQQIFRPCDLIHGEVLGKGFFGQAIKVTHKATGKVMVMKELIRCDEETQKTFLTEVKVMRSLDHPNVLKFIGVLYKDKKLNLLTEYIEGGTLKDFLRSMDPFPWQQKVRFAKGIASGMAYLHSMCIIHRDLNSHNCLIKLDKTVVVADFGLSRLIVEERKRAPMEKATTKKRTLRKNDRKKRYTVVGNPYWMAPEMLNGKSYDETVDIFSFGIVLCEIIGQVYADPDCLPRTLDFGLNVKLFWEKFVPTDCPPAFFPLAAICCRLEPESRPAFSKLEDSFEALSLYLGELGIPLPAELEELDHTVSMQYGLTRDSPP
Serine/threonine-protein kinase/endoribonuclease IRE1, sequence (O75460 whole entry): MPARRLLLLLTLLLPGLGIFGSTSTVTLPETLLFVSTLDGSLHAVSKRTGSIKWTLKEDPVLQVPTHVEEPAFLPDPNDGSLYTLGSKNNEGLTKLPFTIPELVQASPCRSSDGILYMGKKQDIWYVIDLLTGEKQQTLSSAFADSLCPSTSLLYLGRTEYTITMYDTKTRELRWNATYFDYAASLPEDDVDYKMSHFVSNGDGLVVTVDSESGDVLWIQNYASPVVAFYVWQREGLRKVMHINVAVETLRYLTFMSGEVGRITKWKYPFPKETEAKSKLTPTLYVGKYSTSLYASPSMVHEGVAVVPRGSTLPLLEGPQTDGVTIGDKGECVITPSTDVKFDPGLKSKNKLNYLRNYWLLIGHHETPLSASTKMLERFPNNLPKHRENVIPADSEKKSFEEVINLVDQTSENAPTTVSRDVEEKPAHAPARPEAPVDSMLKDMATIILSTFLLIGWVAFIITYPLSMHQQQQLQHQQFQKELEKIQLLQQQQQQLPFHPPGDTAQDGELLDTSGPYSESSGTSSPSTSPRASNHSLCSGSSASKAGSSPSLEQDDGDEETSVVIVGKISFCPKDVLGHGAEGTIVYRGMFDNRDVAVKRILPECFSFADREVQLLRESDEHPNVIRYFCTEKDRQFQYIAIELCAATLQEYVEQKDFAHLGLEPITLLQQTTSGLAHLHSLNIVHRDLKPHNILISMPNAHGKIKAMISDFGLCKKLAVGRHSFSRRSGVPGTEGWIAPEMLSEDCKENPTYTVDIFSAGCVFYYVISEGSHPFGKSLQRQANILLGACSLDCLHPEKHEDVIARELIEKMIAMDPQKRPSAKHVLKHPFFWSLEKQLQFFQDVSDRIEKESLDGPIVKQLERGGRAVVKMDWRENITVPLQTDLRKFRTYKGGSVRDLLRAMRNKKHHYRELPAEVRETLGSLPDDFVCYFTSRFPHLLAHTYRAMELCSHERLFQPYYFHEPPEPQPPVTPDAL
Serine/threonine-protein kinase PAK 4, sequence (O96013 whole entry): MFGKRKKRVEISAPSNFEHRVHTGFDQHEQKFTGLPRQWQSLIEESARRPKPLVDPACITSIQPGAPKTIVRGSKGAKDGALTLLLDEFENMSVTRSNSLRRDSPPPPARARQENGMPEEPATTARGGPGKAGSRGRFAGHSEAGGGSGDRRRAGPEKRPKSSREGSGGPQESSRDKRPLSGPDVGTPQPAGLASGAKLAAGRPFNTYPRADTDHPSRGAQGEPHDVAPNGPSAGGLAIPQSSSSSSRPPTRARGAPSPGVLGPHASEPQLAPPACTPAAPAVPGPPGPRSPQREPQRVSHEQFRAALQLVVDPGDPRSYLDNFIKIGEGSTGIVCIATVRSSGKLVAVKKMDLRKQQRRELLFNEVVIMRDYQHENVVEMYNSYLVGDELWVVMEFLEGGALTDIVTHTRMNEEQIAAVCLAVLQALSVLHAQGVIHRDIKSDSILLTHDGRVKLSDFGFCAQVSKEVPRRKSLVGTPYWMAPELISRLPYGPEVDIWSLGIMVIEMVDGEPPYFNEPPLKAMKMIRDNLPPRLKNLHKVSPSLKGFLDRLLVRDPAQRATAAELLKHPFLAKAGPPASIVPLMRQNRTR

Turning to `COC(=O)[C@@]1(O)C[C@H]2O[C@]1(C)n1c3ccccc3c3c4c(c5c6ccccc6n2c5c31)C(=O)NC4` [K-252A], the Kd was > 30 µM (inactive) in [1]; > 30 µM (inactive) in [2]; > 30 µM (inactive) in test [3]; 0.019 µM (active) in test [4]; > 30 µM (inactive) in [5]; > 30 µM (inactive) on Heme oxygenase 2. Moreover, the Kd is > 30 µM (inactive) on LIM domain kinase 2, 0.344 µM (active) in [6], > 30 µM (inactive) in test [7] and 0.107 µM (active) in [8].

For `Cn1cc(-c2ccc3nnc(C(F)(F)c4ccc5ncccc5c4)n3n2)cn1` [JNJ-38877605], the Kd (in [1]; in test [2]; in [3]; in test [4]; in test [5]; on Heme oxygenase 2) was > 30 µM (inactive) in each case. The Kd (on LIM domain kinase 2; in test [6]; in test [7]; in [8]) was > 30 µM (inactive) each time.

As for `Cc1cc([C@@H](C)Nc2ccccc2C(=O)O)c2nc(N3CCOCC3)cc(=O)n2c1` [AZD-6482], the Kd (in test [1]; in [2]; in test [3]; in test [4]; in test [5]; at Heme oxygenase 2) was > 30 µM (inactive) throughout. The Kd (on LIM domain kinase 2; in [6]; in test [7]; in [8]) was > 30 µM (inactive) throughout.

`CN1CC[C@@H](c2c(O)cc(O)c3c(=O)cc(-c4ccccc4Cl)oc23)[C@@H]1CO`: the Kd (in [1]; in test [2]; in [3]; in [4]; in test [5]; on Heme oxygenase 2) was > 30 µM (inactive) each time. Further, the Kd (on LIM domain kinase 2; in test [6]; in test [7]; in test [8]) was > 30 µM (inactive) in each case.

For `N[C@@H]1CCCN(c2c(/C=C3\SC(=O)NC3=O)cccc2-c2ccccc2)C1`, the Kd (in test [1]; in test [2]; in test [3]; in test [4]; in [5]; at Heme oxygenase 2) was > 30 µM (inactive) each time. Also, the Kd (at LIM domain kinase 2; in [6]; in [7]; in test [8]) was > 30 µM (inactive) each time.

As for `CCN1CCN(Cc2ccc(-c3cc4c(N[C@H](C)c5ccccc5)ncnc4[nH]3)cc2)CC1` [AEE-788], the Kd (in test [1]; in test [2]; in test [3]; in [4]; in test [5]; at Heme oxygenase 2) was > 30 µM (inactive) in each case. Further, the Kd on LIM domain kinase 2 was 21.8 µM (active); in [6] it was > 30 µM (inactive); in test [7] it was > 30 µM (inactive); in test [8], > 30 µM (inactive).

Consider `C[C@@H]1CN(Cc2ccc(F)cc2)[C@@H](C)CN1C(=O)c1cc2c(C(=O)C(=O)N(C)C)cn(C)c2cc1Cl` [TALMAPIMOD], for which the Kd (in test [1]; in test [2]; in test [3]; in test [4]; in test [5]; at Heme oxygenase 2) was > 30 µM (inactive) in each case. In addition, the Kd (on LIM domain kinase 2; in test [6]; in [7]; in test [8]) was > 30 µM (inactive) each time.

Regarding `O=C(Nc1ccc(-c2ccnc(Nc3ccc(N4CCOCC4)cc3)n2)cc1)C1CCCN1` (stereo not given) [XL-019], the Kd (in test [1]; in test [2]; in test [3]; in [4]; in test [5]; on Heme oxygenase 2) was > 30 µM (inactive) each time. Further, the Kd at LIM domain kinase 2 is > 30 µM (inactive); in [6], > 30 µM (inactive); in [7], > 30 µM (inactive); in [8], 0.297 µM (active).

Turning to `CN1CCC(COc2cnc(-c3cccc(Cn4nc(-c5cccc(C#N)c5)ccc4=O)c3)nc2)CC1` [TEPOTINIB], the Kd (in test [1]; in [2]; in [3]; in test [4]; in test [5]; on Heme oxygenase 2) was > 30 µM (inactive) in each case. The Kd (at LIM domain kinase 2; in test [6]; in test [7]; in [8]) was > 30 µM (inactive) in each case.

As to `CCn1c(=O)c(-c2cc[nH]n2)cc2c(C)nc(N)nc21` [VOXTALISIB], the Kd (in test [1]; in test [2]; in [3]; in test [4]; in test [5]; on Heme oxygenase 2) was > 30 µM (inactive) each time. For the same compound, the Kd (at LIM domain kinase 2; in test [6]; in test [7]; in test [8]) was > 30 µM (inactive) each time.

For `Cn1cc(-c2ccc(F)c(C(F)(F)F)c2)nc1C1CCN(c2ncnc3[nH]ncc23)CC1` [LY-2584702], the Kd (in [1]; in [2]; in [3]; in test [4]; in test [5]; on Heme oxygenase 2) was > 30 µM (inactive) each time. Also, the Kd (at LIM domain kinase 2; in test [6]; in test [7]; in test [8]) was > 30 µM (inactive) throughout.

In general, Kd refers to a measure of binding affinity in units of concentration.
